The nature of this series: activity coefficient (dimensionless); of the first substance listed, at infinite dilution; xn = mol fraction of the nth substance listed. The following applies: Liquid, Chromatography, x1 = 0.

Numbers after ± are expanded uncertainties.

For `Cc1ccccc1C` [1,2-dimethylbenzene] + CN(C)c1cc[n+](COCCCOC[n+]2ccc(N(C)C)cc2)cc1.O=S(=O)([N-]S(=O)(=O)C(F)(F)F)C(F)(F)F.O=S(=O)([N-]S(=O)(=O)C(F)(F)F)C(F)(F)F, the activity coefficient runs as follows: (323.15 K) 1.18 ± 0.08; (333.15 K) 1.2 ± 0.08; (343.15 K) 1.22 ± 0.08.

With `CCCCCCCCCCC` [undecane] + CCCOC[n+]1ccn(Cc2ccccc2)c1.N#C[N-]C#N, the activity coefficient reads like this: (323.15 K) 208 ± 14; (333.15 K) 175 ± 12; (343.15 K) 140 ± 9.6.

For `Cc1ccccc1` [toluene] + CCCCCCCCn1cc[n+](COCCCOC[n+]2ccn(CCCCCCCC)c2C)c1C.O=S(=O)([N-]S(=O)(=O)C(F)(F)F)C(F)(F)F.O=S(=O)([N-]S(=O)(=O)C(F)(F)F)C(F)(F)F, the activity coefficient reads like this: (323.15 K) 0.54 ± 0.04; (333.15 K) 0.53 ± 0.04; (343.15 K) 0.54 ± 0.04.

Take `CCCCO` [butan-1-ol] + CCCOC[n+]1ccn(C)c1.F[B-](F)(F)F: the activity coefficient (323.15 K) was 4.61 ± 0.31, the activity coefficient (333.15 K) was found to be 4.17 ± 0.28 and the activity coefficient (343.15 K) is 3.76 ± 0.26.

Regarding `C1COCCO1` [1,4-dioxane] + CCCCCCCCn1cc[n+](COCCC)c1C.O=S(=O)([N-]S(=O)(=O)C(F)(F)F)C(F)(F)F, the activity coefficient was 0.5 ± 0.04 (323.15 K), 0.49 ± 0.04 (333.15 K) and 0.49 ± 0.04 (343.15 K).

Consider `C#CCCCC` [1-hexyne] + CCCOC[n+]1ccn(Cc2ccccc2)c1.F[B-](F)(F)F, for which the activity coefficient was 5.61 ± 0.38 (323.15 K), 5.52 ± 0.38 (333.15 K) and 5.42 ± 0.37 (343.15 K).

For `C1CCCCCC1` [cycloheptane] + CCCCCCCCn1cc[n+](COCCC)c1C.N#C[N-]C#N, the activity coefficient (323.15 K) is 15.7 ± 1.1.

Regarding `CCO` [ethanol] + CCCCCCCCn1cc[n+](COCCCOC[n+]2ccn(CCCCCCCC)c2C)c1C.N#C[N-]C#N.N#C[N-]C#N, the activity coefficient reads like this: (323.15 K) 0.3 ± 0.03; (333.15 K) 0.29 ± 0.03; (343.15 K) 0.29 ± 0.03.

Consider `CCO` [ethanol] + CCCOC[n+]1ccn(Cc2ccccc2)c1.F[B-](F)(F)F, for which the activity coefficient reads like this: (323.15 K) 1.65 ± 0.11; (333.15 K) 1.49 ± 0.1; (343.15 K) 1.38 ± 0.09.

For the compound `CC(C)CO` [2-methyl-1-propanol] + N#C[N-]C#N.N#C[N-]C#N.c1ccc(Cn2cc[n+](COCCCOC[n+]3ccn(Cc4ccccc4)c3)c2)cc1, the activity coefficient worked out at 1.79 ± 0.12 (323.15 K), 1.67 ± 0.11 (333.15 K) and 1.61 ± 0.11 (343.15 K).

Turning to `C#CCCCC` [1-hexyne] + CCCOC[n+]1ccn(Cc2ccccc2)c1.O=S(=O)([N-]S(=O)(=O)C(F)(F)F)C(F)(F)F, the activity coefficient is, setting by setting: (323.15 K) 2.14 ± 0.15; (333.15 K) 2.35 ± 0.16.

In the case of `CCC(C)CC` [3-methylpentane] + CCCCCCCCn1cc[n+](COCCC)c1C.N#C[N-]C#N, the activity coefficient was 6.65 ± 0.45 (323.15 K), 5.7 ± 0.39 (333.15 K) and 6.25 ± 0.43 (343.15 K).

For `CCCCCCCCCCC` [undecane] + CCCOC[n+]1ccn(C)c1.N#C[N-]C#N, the activity coefficient runs as follows: (323.15 K) 556 ± 38; (333.15 K) 504 ± 35; (343.15 K) 432 ± 30.

On to `CCC(C)CC` [3-methylpentane] + CCCOC[n+]1ccn(Cc2ccccc2)c1.N#C[N-]C#N, for which the activity coefficient (323.15 K) was determined as 28.5 ± 1.9.

As to `CCCCCCC` [heptane] + Cn1cc[n+](COCCCOC[n+]2ccn(C)c2)c1.O=S(=O)([N-]S(=O)(=O)C(F)(F)F)C(F)(F)F.O=S(=O)([N-]S(=O)(=O)C(F)(F)F)C(F)(F)F, the activity coefficient (323.15 K) came out at 53 ± 3.6 and the activity coefficient (333.15 K) came to 34 ± 2.3.

Regarding `C1COCCO1` [1,4-dioxane] + CCCOC[n+]1ccn(C)c1.F[B-](F)(F)F, the activity coefficient (323.15 K) was determined as 1.39 ± 0.09, the activity coefficient (333.15 K) was determined as 1.42 ± 0.09 and the activity coefficient (343.15 K) was 1.46 ± 0.1.

For the compound `C[N+](=O)[O-]` [nitromethane] + CCCOC[n+]1ccn(Cc2ccccc2)c1.N#C[N-]C#N, the activity coefficient runs as follows: (323.15 K) 1.06 ± 0.07; (333.15 K) 0.71 ± 0.05; (343.15 K) 0.72 ± 0.05.

With `CC1CCCCC1` [methylcyclohexane] + CCCOC[n+]1ccn(C)c1.N#C[N-]C#N, the activity coefficient reads like this: (323.15 K) 44.3 ± 3; (333.15 K) 39.6 ± 2.7; (343.15 K) 35.6 ± 2.4.

On to `C1CCCCCC1` [cycloheptane] + CCCOC[n+]1ccn(Cc2ccccc2)c1.N#C[N-]C#N, for which the activity coefficient reads like this: (323.15 K) 35.8 ± 2.5; (333.15 K) 47.2 ± 3.2; (343.15 K) 56.3 ± 3.9.

For the compound `ClCCl` [dichloromethane] + CCCCCCCCn1cc[n+](COCCCOC[n+]2ccn(CCCCCCCC)c2C)c1C.N#C[N-]C#N.N#C[N-]C#N, the activity coefficient (323.15 K) came out at 0.28 ± 0.03, the activity coefficient (333.15 K) turned out to be 0.29 ± 0.03 and the activity coefficient (343.15 K) is 0.31 ± 0.03.

On to `CCc1ccccc1` [ethylbenzene] + CCCOC[n+]1ccn(C)c1.O=S(=O)([N-]S(=O)(=O)C(F)(F)F)C(F)(F)F, for which the activity coefficient (323.15 K) was 2.55 ± 0.17, the activity coefficient (333.15 K) was determined as 2.51 ± 0.17 and the activity coefficient (343.15 K) worked out at 2.51 ± 0.17.

Consider `Cc1ccccc1C` [1,2-dimethylbenzene] + CCCOC[n+]1ccc(N(C)C)cc1.O=S(=O)([N-]S(=O)(=O)C(F)(F)F)C(F)(F)F, for which the activity coefficient runs as follows: (323.15 K) 1.24 ± 0.08; (333.15 K) 1.31 ± 0.09; (343.15 K) 1.33 ± 0.09.

Regarding `C#CCCCC` [1-hexyne] + CCCOC[n+]1ccn(C)c1.F[B-](F)(F)F, the activity coefficient by setting is: (323.15 K) 10.3 ± 0.7; (333.15 K) 10.1 ± 0.69; (343.15 K) 9.44 ± 0.64.

On to `C=CCCCC` [hex-1-ene] + CCCOC[n+]1ccc(N(C)C)cc1.O=S(=O)([N-]S(=O)(=O)C(F)(F)F)C(F)(F)F, for which the activity coefficient amounted to 6.62 ± 0.45 (323.15 K), 6.79 ± 0.46 (333.15 K) and 5.24 ± 0.36 (343.15 K).

On to `CC(C)CO` [2-methyl-1-propanol] + Cn1cc[n+](COCCCOC[n+]2ccn(C)c2)c1.O=S(=O)([N-]S(=O)(=O)C(F)(F)F)C(F)(F)F.O=S(=O)([N-]S(=O)(=O)C(F)(F)F)C(F)(F)F, for which the activity coefficient (323.15 K) was found to be 1.87 ± 0.13, the activity coefficient (333.15 K) was determined as 1.71 ± 0.11 and the activity coefficient (343.15 K) was determined as 1.5 ± 0.1.

For `CCCCO` [butan-1-ol] + CN(C)c1cc[n+](COCCCOC[n+]2ccc(N(C)C)cc2)cc1.O=S(=O)([N-]S(=O)(=O)C(F)(F)F)C(F)(F)F.O=S(=O)([N-]S(=O)(=O)C(F)(F)F)C(F)(F)F, the activity coefficient is, setting by setting: (323.15 K) 1.95 ± 0.13; (333.15 K) 1.64 ± 0.11; (343.15 K) 1.58 ± 0.1.

`CCCC(C)=O` [pentan-2-one] + CCCOC[n+]1ccn(Cc2ccccc2)c1.F[B-](F)(F)F: the activity coefficient by setting is: (323.15 K) 1.79 ± 0.12; (333.15 K) 1.76 ± 0.12; (343.15 K) 1.82 ± 0.12.

With `CCCCO` [butan-1-ol] + CCCOC[n+]1ccn(Cc2ccccc2)c1.N#C[N-]C#N, the activity coefficient reads like this: (323.15 K) 0.93 ± 0.06; (333.15 K) 0.88 ± 0.06; (343.15 K) 0.82 ± 0.05.

Regarding `Cc1ccccc1` [toluene] + CCCOC[n+]1ccn(Cc2ccccc2)c1.F[B-](F)(F)F, the activity coefficient by setting is: (323.15 K) 3.12 ± 0.21; (333.15 K) 3.03 ± 0.21; (343.15 K) 3.04 ± 0.21.

`Cc1cccc(C)c1` [1,3-dimethylbenzene] + CCCOC[n+]1ccn(C)c1.F[B-](F)(F)F: the activity coefficient is, setting by setting: (323.15 K) 11 ± 0.75; (333.15 K) 10.8 ± 0.74; (343.15 K) 10.7 ± 0.73.

As for `CCC[N+](=O)[O-]` [1-nitropropane] + Cn1cc[n+](COCCCOC[n+]2ccn(C)c2)c1.O=S(=O)([N-]S(=O)(=O)C(F)(F)F)C(F)(F)F.O=S(=O)([N-]S(=O)(=O)C(F)(F)F)C(F)(F)F, the activity coefficient worked out at 0.54 ± 0.04 (323.15 K), 0.54 ± 0.04 (333.15 K) and 0.53 ± 0.04 (343.15 K).

`CCCCCCC` [heptane] + CCCOC[n+]1ccn(C)c1.O=S(=O)([N-]S(=O)(=O)C(F)(F)F)C(F)(F)F: the activity coefficient is, setting by setting: (323.15 K) 22.9 ± 1.6; (333.15 K) 20.4 ± 1.4; (343.15 K) 17.1 ± 1.2.

For the compound `CO` [methanol] + Cn1cc[n+](COCCCOC[n+]2ccn(C)c2)c1.O=S(=O)([N-]S(=O)(=O)C(F)(F)F)C(F)(F)F.O=S(=O)([N-]S(=O)(=O)C(F)(F)F)C(F)(F)F, the activity coefficient (323.15 K) was determined as 0.76 ± 0.05, the activity coefficient (333.15 K) was determined as 0.75 ± 0.05 and the activity coefficient (343.15 K) was found to be 0.68 ± 0.05.

`c1ccsc1` [thiophene] + CCCCCCCCn1cc[n+](COCCCOC[n+]2ccn(CCCCCCCC)c2C)c1C.N#C[N-]C#N.N#C[N-]C#N: the activity coefficient (323.15 K) stood at 0.49 ± 0.04, the activity coefficient (333.15 K) stood at 0.49 ± 0.04 and the activity coefficient (343.15 K) is 0.51 ± 0.04.

On to `CC(C)CO` [2-methyl-1-propanol] + Cn1cc[n+](COCCCOC[n+]2ccn(C)c2)c1.N#C[N-]C#N.N#C[N-]C#N, for which the activity coefficient reads like this: (323.15 K) 1.94 ± 0.13; (333.15 K) 1.81 ± 0.12; (343.15 K) 1.73 ± 0.12.

With `CO` [methanol] + CCCCCCCCn1cc[n+](COCCC)c1C.N#C[N-]C#N, the activity coefficient is, setting by setting: (323.15 K) 0.32 ± 0.03; (333.15 K) 0.29 ± 0.03; (343.15 K) 0.28 ± 0.03.

In the case of `CO` [methanol] + CN(C)c1cc[n+](COCCCOC[n+]2ccc(N(C)C)cc2)cc1.O=S(=O)([N-]S(=O)(=O)C(F)(F)F)C(F)(F)F.O=S(=O)([N-]S(=O)(=O)C(F)(F)F)C(F)(F)F, the activity coefficient runs as follows: (323.15 K) 0.91 ± 0.06; (333.15 K) 0.86 ± 0.06; (343.15 K) 0.79 ± 0.05.

Regarding `CCCCCCCC` [octane] + CCCCCCCCn1cc[n+](COCCC)c1C.O=S(=O)([N-]S(=O)(=O)C(F)(F)F)C(F)(F)F, the activity coefficient was determined as 5.76 ± 0.39 (323.15 K), 5.48 ± 0.37 (333.15 K) and 5.17 ± 0.35 (343.15 K).

On to `ClC(Cl)(Cl)Cl` [tetrachloromethane] + CCCCCCCCn1cc[n+](COCCC)c1C.N#C[N-]C#N, for which the activity coefficient reads like this: (323.15 K) 1.21 ± 0.08; (333.15 K) 1.23 ± 0.08; (343.15 K) 1.24 ± 0.08.
